Data taken from patent US20210253518A1, “KINASE INHIBITOR” (NISSAN CHEMICAL CORPORATION, priority 2018, published 2021).
Blank lines part the entries; values can stand above or below the compound they belong to.

Columns and labels:
Type in all cases: biochemical
LATS1 = target: T1, LATS1 (Homo sapiens, UniProt O95835); test: Kinase Assay method (Fluorospark Kinase/ADP Multi-Assay Kit)
T1 construct: purchased Carna Biosciences
T1 sequence (O95835 589-1130 limits assumed): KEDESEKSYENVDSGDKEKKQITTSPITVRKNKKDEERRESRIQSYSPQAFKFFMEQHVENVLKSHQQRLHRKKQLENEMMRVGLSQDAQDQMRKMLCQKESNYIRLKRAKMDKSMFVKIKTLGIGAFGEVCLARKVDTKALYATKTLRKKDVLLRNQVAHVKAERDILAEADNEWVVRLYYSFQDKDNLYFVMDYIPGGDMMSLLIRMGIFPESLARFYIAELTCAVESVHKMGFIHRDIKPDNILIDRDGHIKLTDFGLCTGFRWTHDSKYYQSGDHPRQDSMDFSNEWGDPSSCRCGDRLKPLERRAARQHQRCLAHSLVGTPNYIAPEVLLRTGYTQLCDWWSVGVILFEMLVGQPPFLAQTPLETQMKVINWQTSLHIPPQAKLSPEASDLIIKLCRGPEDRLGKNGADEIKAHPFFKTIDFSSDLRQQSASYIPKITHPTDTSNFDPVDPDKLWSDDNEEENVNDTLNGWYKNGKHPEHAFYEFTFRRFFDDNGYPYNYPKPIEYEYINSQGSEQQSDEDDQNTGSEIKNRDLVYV
Experimental: (§1) For compound k-1:B-1 (racemate), GA-002A, GA-002B, GA-005A and GA-005B, inhibitory activity evaluation (calculation of IC50) was performed on LATS1 and LATS2 (manufactured by Carna Biosciences). The activity was measured using the Kinase Assay method described below. The compounds were added such that the test concentration of k-1:B-1 (racemate), GA-002A, GA-002B, GA-005A and GA-005B was in 8 steps (10 μM, 1 μM, 100 nM, […], 10 nM, 3 nM, 1 nM, 0.3 nM) from the final concentration of 10 μM to 0.3 nM.
(§2) As the analysis method of the data, the mean signal of the control well containing reaction components other than the evaluation compound was set to 0% inhibition, the mean signal without enzyme addition was set to 100% inhibition, and the inhibition rate was calculated from the mean signal of 2 wells of each test substance test. IC50 value was calculated using EXSUS (version 7.1.6, manufactured by CAC EXICARE Corporation).
(§3) 2 μL of a compound of the present invention solution at 2.5-fold concentration, 1 μL of substrate at 5-fold concentration (SGKtide: NH2—CKKRNRRLSVA-COOH, manufactured by SignalChem), ATP (manufactured by Sigma-Aldrich), MgCl2 (manufactured by FUJIFILM Wako Pure Chemical Corporation) solution (final concentration 10 μM, 400 μM or 5 mM), and 2 μL of kinase solution at 2.5-fold concentration (final concentration of LATS1 or LATS2 5 μg/mL), each prepared with assay buffer (20 mM HEPES, 0.01% Triton X-100, 2 mM DTT, pH 7.5), were mixed in the wells of a polypropylene 384-well plate (manufactured by Greiner Bio-One, #784900) and reacted at room temperature for 5 hr. Successively, 5 μL detection solution (Fluorospark (registered trade mark)Kinase/ADP Multi-Assay Kit; manufactured by FUJIFILM Wako Pure Chemical Corporation) was added, and the mixture was reacted at room temperature 30 min. Successively, 5 μL of a reaction quenching liquid (Fluorospark (registered trade mark) Kinase/ADP Multi-Assay Kit; manufactured by FUJIFILM Wako Pure Chemical Corporation) was added to discontinue the reaction. Thereafter, the ADP concentration of the reaction solution was quantified by EnSpire (manufactured by PerkinElmer) to detect the kinase reaction.

LATS2 [1] = target: T2, LATS2 (Homo sapiens, UniProt Q9NRM7); test: as above
T2 construct: purchased Carna Biosciences
T2 sequence (Q9NRM7 553-1088 limits assumed): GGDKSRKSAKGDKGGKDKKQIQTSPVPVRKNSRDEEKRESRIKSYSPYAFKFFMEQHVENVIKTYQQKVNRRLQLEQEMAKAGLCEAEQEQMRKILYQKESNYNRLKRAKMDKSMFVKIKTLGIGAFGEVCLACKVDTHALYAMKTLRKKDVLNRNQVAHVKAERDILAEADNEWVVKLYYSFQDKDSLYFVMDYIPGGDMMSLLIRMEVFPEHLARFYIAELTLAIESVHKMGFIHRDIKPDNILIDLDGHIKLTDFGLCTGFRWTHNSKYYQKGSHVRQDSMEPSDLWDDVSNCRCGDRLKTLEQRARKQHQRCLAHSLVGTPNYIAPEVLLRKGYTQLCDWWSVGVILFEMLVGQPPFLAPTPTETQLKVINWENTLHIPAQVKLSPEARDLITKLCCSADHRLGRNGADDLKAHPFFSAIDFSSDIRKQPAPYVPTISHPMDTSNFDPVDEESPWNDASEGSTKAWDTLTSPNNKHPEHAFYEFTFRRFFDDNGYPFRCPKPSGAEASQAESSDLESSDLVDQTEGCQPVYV
Experimental: as §1, §2, §3

LATS2 [2] = target: T3, LATS2 (Homo sapiens, UniProt Q9NRM7); test: Off-chip Mobility Shift Assay (MSA method), kinase inhibition; conditions: MSA method; 10 steps from 10 μM to 0.3 nM
T3 sequence (Q9NRM7 1-1088): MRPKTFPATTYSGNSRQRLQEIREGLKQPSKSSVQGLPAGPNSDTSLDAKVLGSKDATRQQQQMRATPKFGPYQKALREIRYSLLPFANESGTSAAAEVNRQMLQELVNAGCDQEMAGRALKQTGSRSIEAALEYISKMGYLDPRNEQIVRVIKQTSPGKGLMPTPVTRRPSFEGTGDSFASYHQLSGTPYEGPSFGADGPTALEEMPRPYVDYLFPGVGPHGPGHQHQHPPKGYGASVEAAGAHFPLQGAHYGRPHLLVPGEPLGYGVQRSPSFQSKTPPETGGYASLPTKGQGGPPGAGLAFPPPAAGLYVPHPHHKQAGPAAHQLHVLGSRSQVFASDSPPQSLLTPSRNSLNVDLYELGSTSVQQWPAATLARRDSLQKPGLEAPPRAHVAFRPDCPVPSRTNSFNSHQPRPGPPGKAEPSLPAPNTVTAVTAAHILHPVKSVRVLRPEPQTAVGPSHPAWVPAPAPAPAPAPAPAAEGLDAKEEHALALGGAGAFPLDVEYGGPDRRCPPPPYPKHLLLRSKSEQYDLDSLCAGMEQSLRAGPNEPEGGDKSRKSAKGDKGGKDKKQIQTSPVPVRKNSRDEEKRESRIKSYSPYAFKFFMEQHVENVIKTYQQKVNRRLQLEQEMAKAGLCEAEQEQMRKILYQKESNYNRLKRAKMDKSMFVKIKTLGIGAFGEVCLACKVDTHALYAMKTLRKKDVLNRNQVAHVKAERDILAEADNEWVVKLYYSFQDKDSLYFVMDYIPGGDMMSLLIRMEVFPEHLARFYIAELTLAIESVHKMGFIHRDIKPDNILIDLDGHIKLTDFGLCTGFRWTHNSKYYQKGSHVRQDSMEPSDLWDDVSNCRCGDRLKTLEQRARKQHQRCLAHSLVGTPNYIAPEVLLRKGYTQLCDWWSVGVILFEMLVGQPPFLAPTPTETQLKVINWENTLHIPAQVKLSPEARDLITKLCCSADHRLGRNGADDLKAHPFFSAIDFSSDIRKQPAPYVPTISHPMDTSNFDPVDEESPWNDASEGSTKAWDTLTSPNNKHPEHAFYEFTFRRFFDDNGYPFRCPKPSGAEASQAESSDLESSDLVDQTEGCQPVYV
Experimental: For compound k-1:B-1, inhibitory activity evaluation (calculation of 50% inhibitory concentration (IC50)) was performed on 8 kinds of kinases (CGK2, LATS2, MSK1, p70S6K, PKACα, PKACβ, SGK2, SGK3). The activity was measured using the Off-chip Mobility Shift Assay (MSA method) described below. The compound was added such that the test concentration of k-1:B-1 was in 10 steps from the final concentration of 10 μM to 0.3 nM.
As an analysis method of the data, the mean signal of the control well containing all reaction components was set to 0% inhibition, the mean signal without enzyme addition was set to 100% inhibition, and the inhibition rate was calculated from the mean signal of 2 wells of each test substance test. The IC50 value was obtained by approximating a plot based on the test substance concentration and inhibition rate to a 4 parameter logistics curve by using the Excel Solver add-in and by the non-linear least squares method.
(§4) 5 μL of k-1:B-1 solution at 4-fold concentration, 5 μL of substrate/ATP/metal solution at 4-fold concentration, and 10 μL of kinase solution at 2-fold concentration, each prepared with assay buffer (20 mM HEPES, 0.01% Triton X-100, 2 mM DTT, pH 7.5), were mixed in the wells of a polypropylene 384-well plate and reacted at room temperature for 1 or 5 hr. Successively, 70 μL of Termination Buffer (QuickScout Screening Assist MSA; Carna Biosciences) was added to discontinue the reaction. Then, the substrate peptide and the phosphorylated peptide in the reaction solution were separated and quantified by the LabChip system (Perkin Elmer). The kinase reaction was evaluated by the resultant product ratio (P/(P+S)) calculated from the substrate peptide peak height (S) and the phosphorylated peptide peak height (P).
For compounds k-1:H-7, k-1:H-1, k-1:D-1, k-1:J-1, and k-1:B-1, inhibitory rate at 100 nM was calculated on 8 kinds of kinases (CGK2, LATS2, MSK1, p70S6K, PKACα, PKACβ, SGK2, SGK3). The activity was measured using the MSA method. As an analysis method of the data, the mean signal of the control well containing all reaction components was set to 0% inhibition, the mean signal without enzyme addition was set to 100% inhibition, and the inhibition rate was calculated from the mean signal of 2 wells of each test substance test.
as §4, with “a compound” for “k-1:B-1”
For compounds k-1:I-1, k-1:D-1, k-1:J-1, k-1:H-1, k-1:H-7, k-1:B-1, k-5:H-1, k-1:H-3, k-1:D-4 and k-1:I-10, inhibitory activity evaluation (calculation of IC50) was performed on LATS2. The activity was measured using the Off-chip Mobility Shift Assay (MSA method) described below. The compounds were added such that the test concentration of each compound was in 10 steps from the final concentration of 10 μM to 0.3 nM.
5 μL of k-1:I-1, k-1:D-1, k-1:J-1, k-1:H-1, k-1:H-7, k-1:B-1, k-5:H-1, k-1:H-3, k-1:D-4 and k-1:I-10 solutions at 4-fold concentration, 5 μL of substrate/ATP/metal solution at 4-fold concentration, and 10 μL of kinase solution at 2-fold concentration, each prepared with assay buffer (20 mM HEPES, 0.01% Triton X-100, 2 mM DTT, pH 7.5), were mixed in the wells of a polypropylene 384-well plate and reacted at room temperature for 1 or 5 hr. […]

[3] = Kinase Assay method, 8 steps 10 μM to 0.3 nM

- inhibition at 0.1 µM (LATS1; 100 nM, read-out: LARS1 inhibitory rate (%)): 14%
- inhibition at 1 µM (LATS1; 1000 nM, read-out: LARS1 inhibitory rate (%)): 45%
- IC50 (LATS1; [3]): 1270 nM
- inhibition at 0.1 µM (LATS2 [1]; 100 nM, read-out: LARS2 inhibitory rate (%)): 27%
- inhibition at 1 µM (LATS2 [1]; 1000 nM, read-out: LARS2 inhibitory rate (%)): 55%
- IC50 (LATS2 [1]; [3]): 652 nM
Structure (SMILES): CC/C(=N\NC(=O)[C@H](C)Nc1cccc(O)c1)c1ccc(O)c(C)c1O [GA-005B]

- IC50 (LATS2 [2]): 33.4 nM
Structure (SMILES): CCC(=NNC(=O)CNc1ccccc1O)c1ccc(O)c(C)c1O [k-1:D-4]

- IC50 (LATS2 [2]): 46.9 nM
Structure (SMILES): CCC(=NNC(=O)CNc1cccc(C)c1)c1ccc(O)c(C)c1O [k-1:H-3]

- IC50 (LATS2 [2]): 96 nM
Structure (SMILES): CC/C(=N\NC(=O)NCc1ccccc1)c1ccc(O)c(C)c1O [k-1:I-1]

- IC50 (LATS2 [2]): 15 nM
Structure (SMILES): CCC(=NNC(=O)NC(C)c1cccc(O)c1)c1ccc(O)c(C)c1O (centres unmarked) [k-1:I-10]

- IC50 (LATS2 [2]): 21.6 nM
Structure (SMILES): Cc1c(O)ccc(C(CC(C)C)=NNC(=O)CNc2ccccc2)c1O [k-5:H-1]
